Experimental findings from paper PMC6142817, “New Urea Derivatives Are Effective Anti-senescence Compounds Acting Most Likely via a Cytokinin-Independent Mechanism” (Frontiers in Plant Science, 2018) are described below.

In test [1] the test system is young wheat plants under salt stress. The test can be described thus: Salt stress experiment. It counts as in vivo, Triticum a. cv. Hereward. The settings on record: 100 nM, 75 mM NaCl. As to the method: A plastic container was filled with 45 g of perlite and 200 mL of Hoagland's solution (control) or with the addition of ASES to a final concentration of 100 nM. Sterilized seeds of Triticum a. cv. Hereward (6 g) were sown on the surface. Both treatments were done in two repetitions. The plants were left to grow in optimal conditions (22°C, 16/8, light/dark, 130 μM m^−2 s^−1, humidity 60%) for 7 days. During this period, most of the water evaporated and the containers were adjusted to the same weight by the addition of fresh distilled water. After this, all the containers contained 50 g (mL) of water. Then 100 mM NaCl solution was added in the final volume of 150 mL. Final concentration of the salt was 75 mM. The plants were then left to grow, analyzed visually and photographed at certain time-points.

Test [2] concerns the target T1, Arabidopsis thaliana cytokinin oxidase/dehydrogenase 2 (AtCKX2) (Arabidopsis thaliana, UniProt Q9FUJ3).
T1 construct: made in house; host or cells: Saccharomyces cerevisiae strain 23344c ura-, plasmid pYES2-AtCKX2; cell-free growth medium used directly
T1 sequence (Q9FUJ3 23-501): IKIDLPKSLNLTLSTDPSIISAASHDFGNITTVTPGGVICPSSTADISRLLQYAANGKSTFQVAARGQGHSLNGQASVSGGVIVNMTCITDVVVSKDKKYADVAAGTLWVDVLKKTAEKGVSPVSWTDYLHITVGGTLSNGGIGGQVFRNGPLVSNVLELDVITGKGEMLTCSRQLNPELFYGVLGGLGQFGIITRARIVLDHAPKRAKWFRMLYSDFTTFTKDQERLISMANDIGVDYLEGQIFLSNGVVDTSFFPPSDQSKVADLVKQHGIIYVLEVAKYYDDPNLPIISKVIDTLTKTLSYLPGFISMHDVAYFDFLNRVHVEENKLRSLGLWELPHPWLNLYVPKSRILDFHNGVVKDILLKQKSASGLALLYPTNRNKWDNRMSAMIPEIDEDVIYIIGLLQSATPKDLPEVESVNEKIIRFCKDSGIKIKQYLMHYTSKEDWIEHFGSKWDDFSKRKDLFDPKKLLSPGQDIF
The test can be described thus: AtCKX2 inhibition assay (PMS/MTT). Type of test: biochemical. To be noted: PMS/MTT kinetic assay. As to the method: The method based on the coupled redox reaction of phenazine methosulfate and 3-(4,5-dimethylthiazol-2-yl)-2,5-diphenyltetrazolium bromide resulting in the formation of a formazan dye was used to test the ability of the synthesized compounds to inhibit AtCKX2. The assay was performed as described previously (Frébort et al., [2002]). Cell-free growth medium of Saccharomyces cerevisiae strain 23344c ura- harboring the plasmid pYES2- AtCKX2 was used directly as a source of AtCKX2 (Frébortová et al., [2007]).

Regarding `COCCNC(=O)Nc1cnns1` [ASES, 1-(2-methoxy-ethyl)-3-1,2,3-thiadiazol-5-yl-urea], in test [1], the “delay of senescence of the individual leaves compared to the untreated control” value was 5 to 6 days. Moreover, in test [1] (twenty days after planting, control 81%), the “% of plants with dry and/or completely yellow at least one quarter of the first leaf” value was found to be 8%. Also, the “inhibition of AtCKX2” value in test [2] is listed as “neither ASES nor any of the other synthesized substances inhibited AtCKX2”.
